{"source": "ChEMBL document CHEMBL1201862", "about": "“PubChem BioAssay data set” (2004)", "key": {"Cytochrome P450 1A2": {"biological_target": "T1, Cytochrome P450 1A2 (Homo sapiens, UniProt P05177)", "T1 sequence (P05177 whole entry)": "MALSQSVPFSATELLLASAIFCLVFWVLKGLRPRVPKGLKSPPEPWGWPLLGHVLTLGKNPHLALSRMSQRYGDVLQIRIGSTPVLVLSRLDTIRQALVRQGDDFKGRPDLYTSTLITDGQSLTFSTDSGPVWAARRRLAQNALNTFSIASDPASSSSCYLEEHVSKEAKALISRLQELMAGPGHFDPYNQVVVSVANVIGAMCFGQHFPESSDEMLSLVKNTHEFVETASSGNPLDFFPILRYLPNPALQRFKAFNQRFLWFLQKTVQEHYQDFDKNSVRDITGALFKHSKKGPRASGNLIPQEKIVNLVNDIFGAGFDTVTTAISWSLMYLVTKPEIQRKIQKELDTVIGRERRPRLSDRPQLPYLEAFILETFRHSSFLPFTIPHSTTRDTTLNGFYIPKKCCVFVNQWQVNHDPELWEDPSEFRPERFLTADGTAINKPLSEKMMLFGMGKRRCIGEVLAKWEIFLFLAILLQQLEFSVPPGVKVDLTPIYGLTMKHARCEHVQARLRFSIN"}, "Cytochrome P450 2C9": {"biological_target": "Cytochrome P450 2C9 (Homo sapiens, UniProt P11712)", "sequence (P11712 whole entry)": "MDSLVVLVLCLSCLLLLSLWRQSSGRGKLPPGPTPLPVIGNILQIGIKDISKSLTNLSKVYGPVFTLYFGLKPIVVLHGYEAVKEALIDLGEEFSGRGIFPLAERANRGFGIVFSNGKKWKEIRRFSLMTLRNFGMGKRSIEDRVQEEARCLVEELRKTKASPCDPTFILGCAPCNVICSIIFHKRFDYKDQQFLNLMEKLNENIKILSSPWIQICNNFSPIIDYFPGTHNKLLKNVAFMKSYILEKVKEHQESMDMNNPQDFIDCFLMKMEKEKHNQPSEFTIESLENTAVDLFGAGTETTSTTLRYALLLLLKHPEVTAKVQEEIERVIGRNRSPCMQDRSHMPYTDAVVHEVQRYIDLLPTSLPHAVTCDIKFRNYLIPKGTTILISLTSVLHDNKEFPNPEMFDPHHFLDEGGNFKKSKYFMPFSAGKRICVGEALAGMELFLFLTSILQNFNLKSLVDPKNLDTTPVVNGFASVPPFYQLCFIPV"}, "[1]": {"assay": "MIN6 cell viability loss – mouse insulinoma, cytotoxicity control, dose response (AID 2122);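 also: confirmatory high-throughput counterscreen run to flag cytotoxic compounds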", "type": "functional"}, "[2]": {"assay": "decrease of insulin promoter-GFP reporter – imaging, high-content screening, mouse beta cells (AID 1628)", "type": "functional", "settings": "MIN6"}, "[3]": {"biological_target": "T2, Adenosylmethionine-8-amino-7-oxononanoate aminotransferase (Mycobacterium tuberculosis, UniProt P9WQ81)", "T2 sequence (P9WQ81 whole entry)": "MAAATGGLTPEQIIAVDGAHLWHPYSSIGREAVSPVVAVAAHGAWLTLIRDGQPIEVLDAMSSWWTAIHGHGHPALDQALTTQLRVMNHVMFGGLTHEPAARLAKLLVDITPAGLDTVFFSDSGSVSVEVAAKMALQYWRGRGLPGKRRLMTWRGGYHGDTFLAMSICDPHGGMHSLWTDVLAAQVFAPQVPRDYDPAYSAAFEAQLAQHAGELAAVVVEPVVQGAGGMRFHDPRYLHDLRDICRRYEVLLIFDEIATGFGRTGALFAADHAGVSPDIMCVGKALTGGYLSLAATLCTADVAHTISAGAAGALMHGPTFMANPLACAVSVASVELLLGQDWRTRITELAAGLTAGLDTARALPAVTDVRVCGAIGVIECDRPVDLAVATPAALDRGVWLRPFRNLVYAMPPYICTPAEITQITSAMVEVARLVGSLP", "assay": "Mycobacterium tuberculosis BioA enzyme inhibitor Measured in Biochemical System Using Plate Reader - 2163-02_Inhibitor_Dose_CherryPick_Activity.", "type": "functional, Mycobacterium tuberculosis UT205"}, "[4]": {"assay": "Luminescence Cell-Based Dose Retest to Confirm Inhibitors of Cancer Stem Cells. [Related pubchem assays (depositor defined):AID2717, AID2721]", "type": "functional", "settings": "Homo sapiens"}, "Protein Wnt-3a": {"biological_target": "Protein Wnt-3a (Mus musculus, UniProt P27467)", "sequence (P27467 whole entry)": "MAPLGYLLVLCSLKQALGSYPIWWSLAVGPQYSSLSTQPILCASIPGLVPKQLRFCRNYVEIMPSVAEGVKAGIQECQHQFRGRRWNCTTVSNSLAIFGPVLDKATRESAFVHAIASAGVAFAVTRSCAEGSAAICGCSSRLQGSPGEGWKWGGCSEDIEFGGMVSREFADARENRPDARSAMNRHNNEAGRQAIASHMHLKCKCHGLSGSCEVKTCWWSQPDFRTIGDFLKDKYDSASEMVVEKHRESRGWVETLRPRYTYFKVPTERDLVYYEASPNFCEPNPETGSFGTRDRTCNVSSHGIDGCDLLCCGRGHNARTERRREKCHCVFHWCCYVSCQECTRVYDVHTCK", "assay": "antagonism of Wnt3a pathway luciferase reporter – Wnt-LIGHT cells, luminescence, selectivity assay for Gli-SUFU antagonist project, dose response (AID 651570);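 also: Wnt-LIGHT reporter cells stimulated with conditioned medium from Wnt3a-producing cells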", "type": "functional", "settings": "read-out: IC50_Mean"}, "[5]": {"assay": "reduction of Shn3 3'UTR-driven luciferase in osteoblasts – cell-based, Clone20 osteoblasts, firefly luciferase, cherry-picked, dose response (AID 624132)", "type": "functional"}, "[6]": {"assay": "non-specific 3'UTR reporter inhibition in Clone20-Shn3RL – cell-based, Renilla luciferase, cherry-picked, counter-screen for Shn3 inhibitor project, dose response (AID 624133)", "type": "functional"}, "INS1": {"tested_on": "INS1", "assay": "INS-1E survival protection against cytokine death – cell-based, luminescence, retest, dose response (AID 449756);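 also: cell death triggered by IL-1 beta plus TNF-alpha plus IFN-gamma mixture; protective hits raise ATP signal compared with cytokine alone wells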", "type": "functional", "settings": "Rattus norvegicus"}, "[7]": {"assay": "loss of viability in HepG2 cells – cell-based, CellTiter-Glo, cherry-picked, cytotoxicity control for Shn3 inhibitor project, dose response (AID 624134)", "type": "functional"}, "Cytochrome P450 2C19": {"biological_target": "Cytochrome P450 2C19 (Homo sapiens, UniProt P33261)", "sequence (P33261 whole entry)": "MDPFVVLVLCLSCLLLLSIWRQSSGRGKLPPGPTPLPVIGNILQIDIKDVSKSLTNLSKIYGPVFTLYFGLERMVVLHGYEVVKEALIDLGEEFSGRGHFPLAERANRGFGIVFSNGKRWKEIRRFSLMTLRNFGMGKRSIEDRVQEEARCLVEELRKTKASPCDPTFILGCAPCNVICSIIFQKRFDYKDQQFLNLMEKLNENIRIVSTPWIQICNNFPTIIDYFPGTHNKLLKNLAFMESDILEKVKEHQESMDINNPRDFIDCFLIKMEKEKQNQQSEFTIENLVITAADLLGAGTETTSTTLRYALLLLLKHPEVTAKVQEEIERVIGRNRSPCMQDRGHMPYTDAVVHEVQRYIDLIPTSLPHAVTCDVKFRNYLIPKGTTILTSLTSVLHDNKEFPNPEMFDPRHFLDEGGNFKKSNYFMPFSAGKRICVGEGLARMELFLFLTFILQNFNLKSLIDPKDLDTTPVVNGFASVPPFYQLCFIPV", "assay": "Cytochrome panel assay with activity outcomes. Panel member name: p450-cyp2c19 Compounds with AC50 equal or less than 10 uM are considered active", "type": "functional", "settings": "read-out: AC50"}, "Cytochrome P450 3A4": {"biological_target": "Cytochrome P450 3A4 (Homo sapiens, UniProt P08684)", "sequence (P08684 whole entry)": "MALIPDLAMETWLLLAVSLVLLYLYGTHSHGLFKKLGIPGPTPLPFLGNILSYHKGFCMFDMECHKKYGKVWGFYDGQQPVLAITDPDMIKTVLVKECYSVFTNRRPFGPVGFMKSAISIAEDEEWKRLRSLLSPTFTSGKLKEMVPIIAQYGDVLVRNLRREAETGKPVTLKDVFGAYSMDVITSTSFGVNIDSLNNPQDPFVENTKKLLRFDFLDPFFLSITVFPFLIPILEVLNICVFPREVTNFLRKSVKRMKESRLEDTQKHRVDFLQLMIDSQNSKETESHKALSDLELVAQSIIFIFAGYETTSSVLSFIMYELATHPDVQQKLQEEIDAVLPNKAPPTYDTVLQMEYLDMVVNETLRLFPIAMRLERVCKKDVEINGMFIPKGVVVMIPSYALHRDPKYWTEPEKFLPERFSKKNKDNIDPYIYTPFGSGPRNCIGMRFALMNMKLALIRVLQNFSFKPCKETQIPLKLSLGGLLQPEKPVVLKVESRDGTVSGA"}}, "note": "Calls of active or inactive are those of the source."}
{"smiles": "O=C(c1cc(-c2ccco2)on1)N1CCOCC1", "values": [{"measurement": "AC50", "setting": "Cytochrome P450 1A2", "value": "0.0251 µM (inconclusive)"}, {"measurement": "AC50", "setting": "Cytochrome P450 2C9", "value": "inconclusive"}]}
{"smiles": "Cc1ccccc1Cn1c(=N)n(CC(=O)c2ccco2)c2ccccc21", "values": [{"measurement": "IC50", "setting": "[1]", "value": "7.02 µM (active)"}, {"measurement": "IC50", "setting": "[2]", "value": "3.99 µM (active)"}]}
{"smiles": "Cc1nc2c(C(=O)N3CCN(c4ccccn4)CC3)cnn2c(C)c1Cc1cccc(Cl)c1", "values": [{"measurement": "AC50", "setting": "[3]", "value": "3.39 µM (active)"}]}
{"smiles": "O=C(N[C@H]1C/C=C\\C[C@@H](CC(=O)N(CCO)Cc2ccccc2)C(=O)NC[C@H](c2ccccc2)OC1=O)OCC1c2ccccc2-c2ccccc21", "values": [{"measurement": "AC50", "setting": "[4]", "value": "2.24 µM (active)"}, {"measurement": "IC50", "setting": "Protein Wnt-3a", "value": "7.16 µM (active)"}]}
{"smiles": "CCc1nn(CCCC(=O)N(C)Cc2ccccc2)c(=O)c2cc3occc3n12", "values": [{"measurement": "AC50", "setting": "[3]", "value": "4.73 µM (active)"}]}
{"smiles": "CCn1/c(=N\\C(=O)CCS(=O)(=O)c2ccccc2)sc2cccc(OC)c21", "values": [{"measurement": "AC50", "setting": "[5]", "value": "1.28 µM (active)"}, {"measurement": "AC50", "setting": "[6]", "value": "3.05 µM (active)"}, {"measurement": "AC50", "setting": "INS1", "value": "5.08 µM (active)"}, {"measurement": "IC50", "setting": "Protein Wnt-3a", "value": "0.803 µM (active)"}, {"measurement": "AC50", "setting": "[7]", "value": "> 70 µM (inactive)"}]}
{"smiles": "CN1c2ccc(-c3cccc(F)c3)cc2[C@H]2[C@H](CCN2C(=O)c2ccncc2)[C@H]1CO", "values": [{"measurement": "AC50", "setting": "[3]", "value": "0.816 µM (active)"}]}
{"smiles": "CCn1c(C)nc2c1C(=O)c1ccccc1C2=O", "values": [{"measurement": "AC50", "setting": "Cytochrome P450 2C19", "value": "20 µM (inconclusive)"}, {"measurement": "AC50", "setting": "Cytochrome P450 3A4", "value": "20 µM (inconclusive)"}, {"measurement": "AC50", "setting": "Cytochrome P450 2C9", "value": "inconclusive"}]}
